Assay results taken from ChEMBL document CHEMBL4130599, “VU6010608, a Novel mGlu7 NAM from a Series of N-(2-(1H-1,2,4-Triazol-1-yl)-5-(trifluoromethoxy)phenyl)benzamides” (ACS Med Chem Lett, 2017).
Activity calls are given as the source filed them. The calls are words filed in the database; no cut-off is given here.

How the values were obtained:
[1] = target: T1, Metabotropic glutamate receptor 8 (Rattus norvegicus, UniProt P70579); experiment: Antagonist activity at rat mGlu8 expressed in HEK cells co-expressing Galpha15 assessed as reduction in L-AP4-induced intracellular calcium flux pretreated for 142 secs followed by glutamate addition and subsequent stimulation of L-AP4 for 40 secs by Fluo-4 AM dye based fluorescence assay; format: functional, cell-based
T1 sequence (P70579 whole entry): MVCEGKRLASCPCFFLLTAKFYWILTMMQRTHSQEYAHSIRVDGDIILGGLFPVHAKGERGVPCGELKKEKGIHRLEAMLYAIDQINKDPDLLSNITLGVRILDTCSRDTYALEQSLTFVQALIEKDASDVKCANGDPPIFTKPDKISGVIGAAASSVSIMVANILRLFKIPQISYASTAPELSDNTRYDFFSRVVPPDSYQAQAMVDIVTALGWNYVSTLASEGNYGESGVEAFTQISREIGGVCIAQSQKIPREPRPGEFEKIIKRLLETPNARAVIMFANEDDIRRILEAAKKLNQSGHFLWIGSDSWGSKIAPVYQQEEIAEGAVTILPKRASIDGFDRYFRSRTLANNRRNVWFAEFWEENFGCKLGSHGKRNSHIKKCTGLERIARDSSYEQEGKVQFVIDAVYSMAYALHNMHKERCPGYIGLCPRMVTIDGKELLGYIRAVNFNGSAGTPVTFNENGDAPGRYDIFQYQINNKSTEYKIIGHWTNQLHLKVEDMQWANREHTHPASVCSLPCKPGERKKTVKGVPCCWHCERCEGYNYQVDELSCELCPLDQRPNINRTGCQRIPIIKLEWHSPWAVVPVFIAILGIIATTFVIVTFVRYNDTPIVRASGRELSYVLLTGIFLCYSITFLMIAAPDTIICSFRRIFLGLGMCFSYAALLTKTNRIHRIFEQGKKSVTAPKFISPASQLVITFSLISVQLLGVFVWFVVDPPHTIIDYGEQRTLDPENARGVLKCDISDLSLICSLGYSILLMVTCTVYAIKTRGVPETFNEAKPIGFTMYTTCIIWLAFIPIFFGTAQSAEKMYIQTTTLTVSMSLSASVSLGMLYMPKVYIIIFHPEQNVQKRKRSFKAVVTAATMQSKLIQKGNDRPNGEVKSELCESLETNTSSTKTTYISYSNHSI

[2] = target: Metabotropic glutamate receptor 7 (Rattus norvegicus, UniProt P35400); experiment: Negative allosteric modulation of rat mGlu7 expressed in HEK cells co-expressing Galpha15 assessed as reduction in L-AP4-induced intracellular calcium flux pretreated for 142 secs followed by glutamate addition and subsequent stimulation of L-AP4 for 40 secs by Fluo-4 AM dye based fluorescence assay; format: functional, cell-based
Metabotropic glutamate receptor 7, sequence (P35400 whole entry): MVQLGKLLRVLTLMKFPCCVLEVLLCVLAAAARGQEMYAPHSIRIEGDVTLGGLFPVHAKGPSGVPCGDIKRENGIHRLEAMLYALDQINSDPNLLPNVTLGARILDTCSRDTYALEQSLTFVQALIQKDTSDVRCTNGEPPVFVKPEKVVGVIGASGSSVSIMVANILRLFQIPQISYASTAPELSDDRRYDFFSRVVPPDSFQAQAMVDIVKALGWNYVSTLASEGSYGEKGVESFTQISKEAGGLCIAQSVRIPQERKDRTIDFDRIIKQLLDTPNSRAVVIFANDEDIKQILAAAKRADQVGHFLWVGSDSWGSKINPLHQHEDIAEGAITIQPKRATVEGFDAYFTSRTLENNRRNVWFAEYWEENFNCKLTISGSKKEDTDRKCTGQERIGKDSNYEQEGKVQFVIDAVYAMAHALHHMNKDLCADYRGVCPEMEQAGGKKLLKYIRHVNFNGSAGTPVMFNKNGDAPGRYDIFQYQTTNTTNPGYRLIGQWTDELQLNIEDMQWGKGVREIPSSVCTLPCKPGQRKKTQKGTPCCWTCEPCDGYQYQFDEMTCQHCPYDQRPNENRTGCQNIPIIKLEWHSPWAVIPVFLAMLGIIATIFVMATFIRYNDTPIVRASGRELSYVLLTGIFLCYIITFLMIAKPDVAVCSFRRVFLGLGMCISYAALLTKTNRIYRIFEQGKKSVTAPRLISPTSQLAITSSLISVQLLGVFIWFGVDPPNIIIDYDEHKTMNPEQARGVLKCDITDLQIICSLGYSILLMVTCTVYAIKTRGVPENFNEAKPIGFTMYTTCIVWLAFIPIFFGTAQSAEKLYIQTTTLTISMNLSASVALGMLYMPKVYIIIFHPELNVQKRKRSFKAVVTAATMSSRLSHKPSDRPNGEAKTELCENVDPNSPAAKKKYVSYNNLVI

[3] = target: T2, Metabotropic glutamate receptor 4 (Homo sapiens, UniProt Q14833); experiment: Antagonist activity at human mGlu4 expressed in CHO cells co-expressing Gqi5 assessed as reduction in L-AP4-induced intracellular calcium flux pretreated for 142 secs followed by glutamate addition and subsequent stimulation of L-AP4 for 40 secs by Fluo-4 AM dye based fluorescence assay; format: functional, cell-based
T2 sequence (Q14833 whole entry): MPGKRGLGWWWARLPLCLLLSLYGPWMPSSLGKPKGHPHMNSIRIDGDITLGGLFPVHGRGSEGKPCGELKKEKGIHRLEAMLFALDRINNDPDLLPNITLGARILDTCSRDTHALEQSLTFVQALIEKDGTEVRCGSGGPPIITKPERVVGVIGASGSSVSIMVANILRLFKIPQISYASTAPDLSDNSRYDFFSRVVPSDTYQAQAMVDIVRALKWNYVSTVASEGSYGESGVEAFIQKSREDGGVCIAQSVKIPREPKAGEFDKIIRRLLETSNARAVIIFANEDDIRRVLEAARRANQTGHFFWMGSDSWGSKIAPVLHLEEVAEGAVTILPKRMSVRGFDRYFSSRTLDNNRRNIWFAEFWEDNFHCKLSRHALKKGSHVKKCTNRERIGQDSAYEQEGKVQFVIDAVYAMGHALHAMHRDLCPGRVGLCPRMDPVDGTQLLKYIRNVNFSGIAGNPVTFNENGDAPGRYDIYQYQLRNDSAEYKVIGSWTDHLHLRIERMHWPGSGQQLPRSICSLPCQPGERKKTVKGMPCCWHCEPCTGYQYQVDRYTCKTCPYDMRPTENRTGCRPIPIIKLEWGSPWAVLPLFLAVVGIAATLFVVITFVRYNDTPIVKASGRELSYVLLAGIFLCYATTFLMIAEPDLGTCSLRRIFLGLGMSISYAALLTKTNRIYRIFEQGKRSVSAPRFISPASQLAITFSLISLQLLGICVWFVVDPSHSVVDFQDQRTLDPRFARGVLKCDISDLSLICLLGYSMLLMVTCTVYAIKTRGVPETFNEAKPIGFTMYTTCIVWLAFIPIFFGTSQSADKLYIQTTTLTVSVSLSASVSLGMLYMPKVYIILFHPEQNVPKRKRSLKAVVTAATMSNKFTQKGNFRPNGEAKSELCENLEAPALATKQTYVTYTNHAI

[4] = tested on: Mus musculus; experiment: Toxicity in C57/Bl6 mouse at 100 mg/kg, ip; format: organism-based; details: in vivo
[5] = Protein binding in rat brain assessed as unbound fraction measured after 6 hrs by LC-MS/MS based equilibrium dialysis method; format: ADME, tissue-based
[6] = Brain to plasma partition coefficient, Kp of the compound in cannulated Sprague-Dawley rat at 0.2 to 0.25 mg/kg, iv administered as cassette dose measured after 0.25 hrs by LC-MS/MS analysis; format: ADME, organism-based; details: brain and plasma
[7] = Unbound brain to plasma concentration ratio in cannulated Sprague-Dawley rat at 0.2 to 0.25 mg/kg, iv administered as cassette dose measured after 0.25 hrs by LC-MS/MS analysis; format: ADME, organism-based; details: brain and plasma, read-out: K(p,uu,brain)
[8] = Protein binding in mouse plasma assessed as unbound fraction measured after 4 hrs by LC-MS/MS based equilibrium dialysis method; format: ADME, cell-free
[9] = Protein binding in rat plasma assessed as unbound fraction measured after 4 hrs by LC-MS/MS based equilibrium dialysis method; format: ADME, cell-free
[10] = target: T3, Metabotropic glutamate receptor 1 (Homo sapiens, UniProt Q13255); experiment: Antagonist activity at mGlu1 receptor (unknown origin); format: functional
[11] = target: T4, Metabotropic glutamate receptor 5 (Homo sapiens, UniProt P41594); experiment: Agonist activity at mGlu5 receptor (unknown origin); format: functional
T4 sequence (P41594 whole entry): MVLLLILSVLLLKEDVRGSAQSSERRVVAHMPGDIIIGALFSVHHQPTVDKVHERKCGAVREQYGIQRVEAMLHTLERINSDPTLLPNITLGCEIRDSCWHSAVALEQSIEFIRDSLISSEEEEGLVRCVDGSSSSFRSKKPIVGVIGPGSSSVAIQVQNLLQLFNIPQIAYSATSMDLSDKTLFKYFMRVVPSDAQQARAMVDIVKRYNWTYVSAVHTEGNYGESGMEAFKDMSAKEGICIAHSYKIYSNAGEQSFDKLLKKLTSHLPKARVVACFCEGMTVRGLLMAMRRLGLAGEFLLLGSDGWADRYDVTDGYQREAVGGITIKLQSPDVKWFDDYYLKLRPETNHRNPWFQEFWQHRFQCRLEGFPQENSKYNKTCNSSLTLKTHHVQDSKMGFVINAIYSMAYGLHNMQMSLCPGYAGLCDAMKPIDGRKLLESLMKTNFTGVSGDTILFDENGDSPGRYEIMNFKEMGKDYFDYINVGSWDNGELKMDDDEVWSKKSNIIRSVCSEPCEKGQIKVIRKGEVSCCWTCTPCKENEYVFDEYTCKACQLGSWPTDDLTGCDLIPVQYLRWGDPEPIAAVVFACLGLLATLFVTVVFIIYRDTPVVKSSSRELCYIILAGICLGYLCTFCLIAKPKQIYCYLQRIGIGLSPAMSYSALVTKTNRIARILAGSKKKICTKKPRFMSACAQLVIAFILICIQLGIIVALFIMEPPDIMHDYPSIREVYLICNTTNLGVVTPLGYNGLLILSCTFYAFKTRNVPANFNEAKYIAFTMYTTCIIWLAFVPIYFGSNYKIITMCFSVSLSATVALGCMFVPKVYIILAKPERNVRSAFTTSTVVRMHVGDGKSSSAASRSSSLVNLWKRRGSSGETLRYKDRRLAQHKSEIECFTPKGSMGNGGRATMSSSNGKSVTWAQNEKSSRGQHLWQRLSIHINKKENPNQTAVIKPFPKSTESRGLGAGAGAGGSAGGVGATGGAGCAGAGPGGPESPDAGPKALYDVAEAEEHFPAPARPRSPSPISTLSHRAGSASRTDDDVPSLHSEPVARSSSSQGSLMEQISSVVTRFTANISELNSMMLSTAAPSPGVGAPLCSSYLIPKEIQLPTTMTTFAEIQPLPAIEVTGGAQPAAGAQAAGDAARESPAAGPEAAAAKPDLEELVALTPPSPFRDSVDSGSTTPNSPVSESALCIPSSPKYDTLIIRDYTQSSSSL

[12] = Unbound brain to plasma concentration ratio in C57/Bl6 mouse at 30 mg/kg, ip measured after 0.5 hrs by LC-MS/MS analysis; format: ADME, organism-based; details: brain and plasma, read-out: K(p,uu,brain)
[13] = target: T5, Metabotropic glutamate receptor 6 (Homo sapiens, UniProt O15303); experiment: Antagonist activity at mGlu6 receptor (unknown origin); format: functional
T5 sequence (O15303 whole entry): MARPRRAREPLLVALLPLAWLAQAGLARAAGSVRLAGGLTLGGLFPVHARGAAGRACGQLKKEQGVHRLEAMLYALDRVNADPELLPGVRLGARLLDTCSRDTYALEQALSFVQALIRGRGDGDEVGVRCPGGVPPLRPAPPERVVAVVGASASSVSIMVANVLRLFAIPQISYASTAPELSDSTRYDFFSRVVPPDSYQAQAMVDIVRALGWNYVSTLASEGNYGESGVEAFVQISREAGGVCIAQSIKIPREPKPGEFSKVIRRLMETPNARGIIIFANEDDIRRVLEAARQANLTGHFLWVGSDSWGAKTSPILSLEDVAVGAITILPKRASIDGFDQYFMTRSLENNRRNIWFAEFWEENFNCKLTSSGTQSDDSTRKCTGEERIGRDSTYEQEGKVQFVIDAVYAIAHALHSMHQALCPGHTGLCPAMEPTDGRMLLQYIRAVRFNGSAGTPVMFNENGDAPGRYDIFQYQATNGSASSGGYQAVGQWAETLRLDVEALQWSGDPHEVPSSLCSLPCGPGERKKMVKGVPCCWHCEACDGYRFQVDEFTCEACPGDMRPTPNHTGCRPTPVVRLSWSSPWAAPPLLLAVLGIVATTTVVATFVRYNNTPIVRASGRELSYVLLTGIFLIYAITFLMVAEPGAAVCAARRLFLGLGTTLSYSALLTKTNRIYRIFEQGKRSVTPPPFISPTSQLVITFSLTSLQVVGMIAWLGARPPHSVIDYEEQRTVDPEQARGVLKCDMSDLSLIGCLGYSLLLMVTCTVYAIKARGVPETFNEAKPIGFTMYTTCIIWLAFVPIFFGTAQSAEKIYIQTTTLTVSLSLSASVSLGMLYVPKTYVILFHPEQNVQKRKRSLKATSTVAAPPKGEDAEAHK

[14] = Unbound drug level in C57/Bl6 mouse plasma assessed as unbound fraction at 100 mg/kg, ip by LC-MS/MS analysis; format: ADME, organism-based; details: in vivo
[15] = Clearance in cannulated Sprague-Dawley rat at 0.2 to 0.25 mg/kg, iv administered as cassette dose by LC-MS/MS analysis; format: ADME, organism-based; details: in vivo
[16] = Oral bioavailability in cannulated Sprague-Dawley rat; format: ADME, organism-based; details: in vivo
[17] = target: T6, Metabotropic glutamate receptor 3 (Homo sapiens, UniProt Q14832); experiment: Agonist activity at mGlu3 receptor (unknown origin); format: functional
[18] = Half life in cannulated Sprague-Dawley rat at 0.2 to 0.25 mg/kg, iv administered as cassette dose by LC-MS/MS analysis; format: ADME, organism-based; details: in vivo
[19] = Unbound brain to plasma concentration ratio in C57/Bl6 mouse at 100 mg/kg, ip measured after 0.5 hrs by LC-MS/MS analysis; format: ADME, organism-based; details: brain and plasma, read-out: K(p,uu,brain)
[20] = Unbound brain to plasma concentration ratio in C57/Bl6 mouse at 10 mg/kg, ip measured after 0.5 hrs by LC-MS/MS analysis; format: ADME, organism-based; details: brain and plasma, read-out: K(p,uu,brain)
[21] = Volume of distribution at steady state in cannulated Sprague-Dawley rat at 0.2 to 0.25 mg/kg, iv administered as cassette dose by LC-MS/MS analysis; format: ADME, organism-based; details: in vivo, read-out: Vdss
[22] = tested on: Brain; experiment: Blockade of high-frequency stimulation-induced long-term potentiation at SC-CA1 synapses in C57BL/6J mouse brain slices at 10 uM pretreated for 10 mins followed by high-frequency stimulation measured up to 60 mins; format: functional, tissue-based
[23] = Unbound drug level in C57/Bl6 mouse plasma at 10 mg/kg, ip by LC-MS/MS analysis; format: ADME, organism-based; details: in vivo
[24] = Drug level in C57/Bl6 mouse plasma at 30 mg/kg, ip by LC-MS/MS analysis; format: ADME, organism-based; details: in vivo
[25] = Drug metabolism in rat hepatic S9 fraction assessed as amide hydrolysis after 60 mins in presence of NADPH/UDPGA/PAPS by LC/MS analysis; format: ADME, subcellular, Liver; details: s9, 1 h
[26] = target: T7, Metabotropic glutamate receptor 2 (Homo sapiens, UniProt Q14416); experiment: Agonist activity at mGlu2 receptor (unknown origin); format: functional
[27] = Brain to plasma partition coefficient, Kp of the compound in C57/Bl6 mouse at 100 mg/kg, ip measured after 0.5 hrs by LC-MS/MS analysis; format: ADME, organism-based; details: brain and plasma
[28] = target: T3, Metabotropic glutamate receptor 1; experiment: Agonist activity at mGlu1 receptor (unknown origin); format: functional
[29] = Unbound drug level in C57/Bl6 mouse plasma assessed as unbound fraction at 30 mg/kg, ip by LC-MS/MS analysis; format: ADME, organism-based; details: in vivo
[30] = Drug level in C57/Bl6 mouse brain at 30 mg/kg, ip by LC-MS/MS analysis; format: ADME, organism-based; details: in vivo, read-out: Drug uptake
[31] = target: T1, Metabotropic glutamate receptor 8; experiment: Agonist activity at rat mGlu8 expressed in HEK cells co-expressing Galpha15 measured after 142 secs by Fluo-4 AM dye based calcium flux assay; format: functional, cell-based
[32] = Unbound drug level in C57/Bl6 mouse brain assessed as unbound fraction at 10 mg/kg, ip by LC-MS/MS analysis; format: ADME, organism-based; details: in vivo
[33] = target: T4, Metabotropic glutamate receptor 5; experiment: Antagonist activity at mGlu5 receptor (unknown origin); format: functional
[34] = target: T2, Metabotropic glutamate receptor 4; experiment: Agonist activity at human mGlu4 expressed in CHO cells co-expressing Gqi5 after 142 secs by Fluo-4AM dye based calcium flux assay; format: functional, cell-based
[35] = Drug level in C57/Bl6 mouse plasma at 10 mg/kg, ip by LC-MS/MS analysis; format: ADME, organism-based; details: in vivo
[36] = Brain to plasma partition coefficient, Kp of the compound in C57/Bl6 mouse at 10 mg/kg, ip measured after 0.5 hrs by LC-MS/MS analysis; format: ADME, organism-based; details: brain and plasma
[37] = Brain to plasma partition coefficient, Kp of the compound in C57/Bl6 mouse at 30 mg/kg, ip measured after 0.5 hrs by LC-MS/MS analysis; format: ADME, organism-based; details: brain and plasma
[38] = Drug level in C57/Bl6 mouse brain at 100 mg/kg, ip by LC-MS/MS analysis; format: ADME, organism-based; details: in vivo, read-out: Drug uptake
[39] = Unbound drug level in C57/Bl6 mouse brain assessed as unbound fraction at 100 mg/kg, ip by LC-MS/MS analysis; format: ADME, organism-based; details: in vivo
[40] = Drug level in C57/Bl6 mouse brain at 10 mg/kg, ip by LC-MS/MS analysis; format: ADME, organism-based; details: in vivo, read-out: Drug uptake
[41] = target: T7, Metabotropic glutamate receptor 2; experiment: Antagonist activity at mGlu2 receptor (unknown origin); format: functional
[42] = target: T5, Metabotropic glutamate receptor 6; experiment: Agonist activity at mGlu6 receptor (unknown origin); format: functional
[43] = target: T6, Metabotropic glutamate receptor 3; experiment: Antagonist activity at mGlu3 receptor (unknown origin); format: functional
[44] = Unbound drug level in C57/Bl6 mouse brain assessed as unbound fraction at 30 mg/kg, ip by LC-MS/MS analysis; format: ADME, organism-based; details: in vivo

## COc1ccc(C(=O)Nc2cc(Cl)ccc2-n2cncn2)cc1OC
[1]
  IC50: > 30 µM
[2]
  IC50: 5.8 µM
[3]
  IC50: > 30 µM

## CCc1nc2c(o1)CC(c1ccc(C)cc1C)CC2=O (stereo not given)
[4]
  Activity: Non-Toxic
[2]
  IC50: 0.676 µM

## COc1cc(C(=O)Nc2cc(OC(F)(F)F)ccc2-n2cncn2)ccc1OC(C)C
[5]
  fraction unbound at 6 h: 0.013
[6]
  Kp at 0.25 h: 4.4
[7]
  Kp uu at 0.25 h: 0.89
[8]
  fraction unbound at 4 h: 0.063
[9]
  fraction unbound at 4 h: 0.065

## COc1ccc(C(=O)Nc2cc(OC(F)(F)F)ccc2-n2cncn2)cc1OC
[10]
  IC50: > 10 µM
[11]
  EC50: > 10 µM
[12]
  Kp uu at 0.5 h: 0.51
[13]
  IC50: > 10 µM
[14]
  Cp(f): 137 nM
[15]
  clearance: 64.2 mL/min/kg
[16]
  bioavailability: 18.9%
[1]
  IC50: > 10 µM
[17]
  EC50: > 10 µM
[18]
  half-life: 1.73 h
[19]
  Kp uu at 0.5 h: 0.43
[20]
  Kp uu at 0.5 h: 0.44
[21]
  Vd: 6.2 L/kg
[22]
  Activity: Active
[23]
  Cp(f): 32.5 nM
[24]
  concentration: 402 nM
[25]
  Drug metabolism: Metabolite_Detected
[5]
  fraction unbound at 6 h: 0.034
[26]
  EC50: > 10 µM
[6]
  Kp at 0.25 h: 3.4
[27]
  Kp at 0.5 h: 2
[28]
  EC50: > 10 µM
[29]
  Cp(f): 71.5 nM
[4]
  Activity: Non-Toxic
[30]
  concentration: 952 nM
[31]
  EC50: > 10 µM
[32]
  Drug uptake(free): 14.3 nM
[33]
  IC50: > 10 µM
[7]
  Kp uu at 0.25 h: 0.48
[34]
  EC50: > 10 µM
[35]
  concentration: 180 nM
[36]
  Kp at 0.5 h: 2.01
[3]
  IC50: > 10 µM
[37]
  Kp at 0.5 h: 2.36
[8]
  fraction unbound at 4 h: 0.178
[38]
  concentration: 1550 nM
[39]
  Drug uptake(free): 59 nM
[40]
  concentration: 380 nM
[41]
  IC50: > 10 µM
[42]
  EC50: > 10 µM
[43]
  IC50: > 10 µM
[9]; 4 h
  Fu: 0.244
[44]
  Drug uptake(free): 36.2 nM

## CCCOc1ccc(C(=O)Nc2cc(OC(F)(F)F)ccc2-n2cncn2)cc1OC
[5]
  fraction unbound at 6 h: 0.009
[6]
  Kp at 0.25 h: 1.9
[7]
  Kp uu at 0.25 h: 1
[8]
  fraction unbound at 4 h: 0.019
[9]
  fraction unbound at 4 h: 0.017

## COc1cc(C(=O)Nc2cc(OC(F)(F)F)ccc2-n2cncn2)ccc1OC1CCCC1
[2]
  IC50: 1.4 µM

## CCOc1ccc(C(=O)Nc2cc(OC(F)(F)F)ccc2-n2cncn2)cc1OC
[5]
  fraction unbound at 6 h: 0.017
[6]
  Kp at 0.25 h: 3.5
[7]
  Kp uu at 0.25 h: 0.83
[8]
  fraction unbound at 4 h: 0.086
[9]
  fraction unbound at 4 h: 0.072

## COc1cc(C(=O)Nc2cc(OC(F)(F)F)ccc2-n2cncn2)ccc1OC1CC1
[5]
  fraction unbound at 6 h: 0.013
[6]
  Kp at 0.25 h: 5.8
[2]
  IC50: 0.71 µM
[7]
  Kp uu at 0.25 h: 1.5
[8]
  fraction unbound at 4 h: 0.039
[9]
  fraction unbound at 4 h: 0.052
